Measured values as given in US20260232629A1, “Covalent Degraders of Oncogenic Transcription Factors” (The Regents of the University of California, priority 2023, published 2026).

Key:
[1] = target: T1, proteome-wide cysteine-reactivity (C619 on CTNNB1) (Homo sapiens, UniProt P35222); test: isoDTB-ABPP, proteome-wide cysteine-reactivity in cells; assay type: cell-based
T1 construct: endogenous in cells
T1 sequence (P35222 1-781): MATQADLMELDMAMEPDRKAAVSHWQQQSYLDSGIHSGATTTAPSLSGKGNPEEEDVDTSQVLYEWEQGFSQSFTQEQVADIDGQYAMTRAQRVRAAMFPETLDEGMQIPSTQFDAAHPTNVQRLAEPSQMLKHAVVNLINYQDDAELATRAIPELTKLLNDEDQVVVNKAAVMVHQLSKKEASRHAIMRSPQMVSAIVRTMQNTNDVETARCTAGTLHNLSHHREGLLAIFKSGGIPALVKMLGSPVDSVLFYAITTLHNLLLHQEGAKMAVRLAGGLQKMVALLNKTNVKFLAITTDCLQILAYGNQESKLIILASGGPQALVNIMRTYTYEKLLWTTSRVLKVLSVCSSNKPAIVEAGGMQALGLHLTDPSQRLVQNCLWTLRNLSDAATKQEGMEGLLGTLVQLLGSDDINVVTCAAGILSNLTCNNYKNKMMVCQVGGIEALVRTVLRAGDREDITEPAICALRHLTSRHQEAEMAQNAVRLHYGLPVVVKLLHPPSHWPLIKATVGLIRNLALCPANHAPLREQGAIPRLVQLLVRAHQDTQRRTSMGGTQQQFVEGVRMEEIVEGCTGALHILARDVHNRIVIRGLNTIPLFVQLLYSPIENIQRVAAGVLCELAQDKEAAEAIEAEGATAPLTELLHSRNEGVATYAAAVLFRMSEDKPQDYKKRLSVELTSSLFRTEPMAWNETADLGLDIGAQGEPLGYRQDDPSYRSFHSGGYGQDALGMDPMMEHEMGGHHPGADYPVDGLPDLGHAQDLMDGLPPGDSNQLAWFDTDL
Text: We next wanted to confirm that EN83 engages CTNNB1 in cells. […] We next performed a mass spectrometry-based ABPP or isodesthiobiotin-ABPP (isoDTB-ABPP) to map overall proteome-wide cysteine-reactivity of EN83 in cells using previously established methods. […] Among the off-targets of EN83, none of the targets were within the Wnt signaling pathway, including AXIN1, BTRC, or GSK3A or GSK3B.

[2] = tested on: FLAG-tagged wild-type, C439S, C466S, C520S, or C619S mutant CTNNB1; test: Degradation of FLAG-tagged wild-type or cysteine-to-serine mutant CTNNB1 in cells; assay type: cell-based; conditions: FLAG-tagged CTNNB1 wild-type vs C439S
Text: We next sought to confirm the contributions of the cysteines targeted by EN83 in CTNNB1 to CTNNB1 degradation.

[3] = target: T2, CTNNB1 with a N-terminal HiBiT tag (Homo sapiens, UniProt P35222); test: CTNNB1 HiBiT cell line assay (Nano-Glo HiBiT lytic detection); assay type: cell-based; conditions: HEK293 cells expressing endogenous N-terminal HiBiT-tagged CTNNB1
T2 construct: N-terminal HiBiT tag incorporated into the endogenous loci of CTNNB1; host or cells: HEK293 (CTNNB1 HiBiT knock-in line)
T2 sequence (P35222 1-781): T1 sequence (P35222 1-781)
Experimental: To identify a covalent degrader of CTNNB1, we screened a library of 2100 cysteine-reactive covalent ligands consisting of acrylamides and chloroacetamides in HEK293 cells expressing CTNNB1 with a N-terminal HiBiT tag incorporated into the endogenous loci of CTNNB1. We identified 17 hits lowered CTNNB1 levels.
Covalent ligand screen and dose responses were conducted using Promega Nano-Glo HiBiT Lytic Detection System (N3040) and CellTiter-Glo 2.0 Assay (G9242). HiBiT cells were seeded into 96-well plates (Corning 3917) at 35,000 cells per 100 μL of media and were left overnight to adhere. Cells were treated with 25 μL of media containing 1:125 dilution from a 1000×DMSO compound stock and treated for either 6 hrs, 12 hrs, or 24 hrs. […] 125 μL of CTG or Lytic detection system reagents were added to each well. To assess the cells in the supernatant, half of the plates had the media removed prior to the addition of CTG or lytic detection system reagents. Plates were rocked for 15 minutes prior to their luminescence readout on the Tecan Spark Plate reader (30086376).

[4] = target: T3, CTNNB1 (Homo sapiens, UniProt P35222); test: Cellular thermal shift assay; assay type: cell-based; conditions: cellular treatment
T3 construct: endogenous in cells; host or cells: HEK293T, HT29, COLO-201, SW480
T3 sequence (P35222 1-781): T1 sequence (P35222 1-781)

[5] = target: T4, pure human CTNNB1 protein (Homo sapiens, UniProt P35222); test: Gel-based ABPP with CTNNB1 pure protein (IA-Rhodamine displacement); assay type: binding; conditions: displacement of cysteine-reactive fluorescent probe
T4 sequence (P35222 1-781): T1 sequence (P35222 1-781)
Experimental: CTNNB1 pure protein (0.1 μg/25 μL in PBS) was treated with either DMSO vehicle or covalent ligand at 37° C. for 30 min, and subsequently treated with 0.1 μM IA-Rhodamine (Setareh Biotech) for 1 h at RT in the dark. The reaction was stopped by addition of 4×reducing Laemmli SDS sample loading buffer (Alfa Aesar). After boiling at 95° C. for 5 min, the samples were separated on precast 4-20% Criterion TGX gels (Bio-Rad) and were analyzed by in-gel fluorescence using a ChemiDoc MP (Bio-Rad).

[6] = target: T3, CTNNB1; test: Western blotting of CTNNB1 in cells; assay type: cell-based; conditions: proteasome dependence
Experimental: Pelleted cells are lysed with CST buffer containing protease inhibitor cocktail (Pierce A32955). Samples were centrifuged at 20,000 g for 20 min at 4° C. to remove cell debris. Samples' protein content was normalized to run 30 μg per well. Samples were then boiled for 8 min at 90° C. after addition of 4×reducing Laemmli SDS sample loading buffer (Alfa Aesar) and ran on precast 4-20% Criterion TGX gels (Bio-Rad).
Antibodies to CTNNB1 (Cell Signaling Technology, 8814S), GAPDH (Proteintech Group Inc., 60004-1-Ig or Cell Signaling Technology, 14C10), and DDDDK tag (Abcam, ab205606) were diluted per recommended manufacturers' procedures. Proteins were resolved by SDS/PAGE and transferred to nitrocellulose membranes using the BioRad system (1704271 and 1704150). Blots were blocked with 5% BSA in Tris-buffered saline containing Tween 20 (TBST) solution for 1 hour at room temperature, washed in TBST, and probed with primary antibody diluted in recommended diluent per manufacturer overnight at 4° C. Following washes with TBST, the blots were incubated in the dark with secondary antibodies purchased from Ly-Cor and used at 1:10,000 dilution in 5% BSA in TBST at room temperature. Blots were visualized using an Odyssey Li-Cor scanner after additional washes. If additional primary antibody incubations were required the membrane was stripped using ReBlot Plus Strong Antibody Stripping Solution (EMD Millipore, 2504), washed and blocked again before being reincubated with primary antibody.

[7] = target: T3, CTNNB1; test: Alkyne probe enrichment of CTNNB1 from cells; assay type: cell-based; conditions: in cells; GAPDH as unrelated target
[8] = target: T5, CTNNB1 pure protein (Homo sapiens, UniProt P35222); test: NF686 probe labeling on CTNNB1 pure protein; assay type: binding; conditions: alkyne probe, click to fluorescent azide, in-gel fluorescence
T5 sequence (P35222 1-781): T1 sequence (P35222 1-781)
Experimental: CTNNB1 pure protein (0.2 μg/50 μL in PBS) was treated with either DMSO vehicle or NF686 at 37° C. for 30 min. Click reagents Azide-Fluor 545 (Click Chemistry Tools, Inc. AZ109-5), Copper (II) Sulfate, and TBTA (TCI Chemicals, T2993) were added to have a final concentration of 21.8 μM, 873.4 μM, and 47.2 μg/mL, respectively, for 1 hr at RT in the dark. The reaction was stopped by addition of 4×reducing Laemmli SDS sample loading buffer (Alfa Aesar). After boiling samples at 95° C. for 5 min, the samples were separated on precast 4-20% Criterion TGX gels (Bio-Rad). Probe-labeled proteins were analyzed by in-gel fluorescence using a ChemiDoc MP (Bio-Rad).

Structure (SMILES) | CTNNB1 HiBiT levels [3] | binding to CTNNB1 by gel-based ABPP [5] | CTNNB1 protein levels by Western blotting [6] | other results
COc1ccc(OC)c(C2CCCN2C(=O)CCl)c1 (racemic) [EN83] | dose-responsive CTNNB1 loss that was significantly attenuated by proteasome or NEDDylation inhibition | dose-responsively displaced cysteine-reactive fluorescent probe labeling of pure human CTNNB1 protein | – | number of other targets significantly engaged by over 50% ([1]; among 8251 cysteines detected and quantified, three biological replicates): 139; proteome-wide selectivity ([1]; isoDTB-ABPP in cells): only moderately selective; engagement of CTNNB1 cysteine in cells ([1]; isoDTB-ABPP, three biological replicates): significantly engaged C619 on CTNNB1; effect of cysteine mutation on CTNNB1 degradation [2]: mutation of C466, C520, or C619, but not C439, to serines significantly attenuated CTNNB1 degradation in cells; thermal stability of CTNNB1 in cells [4]: significant thermal destabilization of CTNNB1 in cells
CCC(=O)N1CCCC1c1cc(OC)ccc1OC (stereo not drawn) [NF602, 1-(2-(2,5-dimethoxyphenyl)pyrrolidin-1-yl)propan-1-one] | does not alter CTNNB1 levels | does not show binding to CTNNB1 | does not alter CTNNB1 levels | –
C#CCCCNC(=O)c1ccc(OC)c([C@@H]2CCCN2C(=O)CCl)c1 [NF686, (S)-3-(1-(2-chloroacetyl)pyrrolidin-2-yl)-4-methoxy-N-(pent-4-yn-1-yl)benzamide] | – | – | – | enrichment of CTNNB1 from cells with alkyne probe [7]: CTNNB1 could be enriched from cells with the probes without enriching unrelated targets such as GAPDH; direct probe labeling of pure CTNNB1 protein [8]: direct covalent dose-responsive probe labeling of pure CTNNB1 protein
COc1ccc(C(F)(F)F)cc1C1CCCN1C(=O)CCl (stereo not drawn) [NF740, 2-chloro-1-(2-(2-methoxy-5-(trifluoromethyl)phenyl)pyrrolidin-1-yl)ethan-1-one] | lowering CTNNB1 HiBiT levels in HEK293 cells in a dose-responsive manner | tolerated | confirmed to be proteasome-dependent | –
COc1ccc(C(F)(F)F)c(C2CCCN2C(=O)CCl)c1 (stereo not drawn) [NF741, 2-chloro-1-(2-(5-methoxy-2-(trifluoromethyl)phenyl)pyrrolidin-1-yl)ethan-1-one] | lowering CTNNB1 HiBiT levels in HEK293 cells in a dose-responsive manner | tolerated | confirmed to be proteasome-dependent | –
COc1ccc(C(F)(F)F)c(C2CCCN2C(=O)/C=C/C(=O)c2ccccc2)c1 (stereo not drawn) [NF764, (E)-1-(2-(5-methoxy-2-(trifluoromethyl)phenyl)pyrrolidin-1-yl)-4-phenylbut-2-ene-1,4-dione] | more potent loss of CTNNB1 HiBiT levels | improved CTNNB1 binding | lowered CTNNB1 protein levels in cells in a proteasome-dependent manner | –
COc1ccc(C(F)(F)F)cc1C1CCCN1C(=O)/C=C/C(=O)c1ccccc1 (stereo not drawn) [NF765, (E)-1-(2-(2-methoxy-5-(trifluoromethyl)phenyl)pyrrolidin-1-yl)-4-phenylbut-2-ene-1,4-dione] | more potent loss of CTNNB1 HiBiT levels | improved CTNNB1 binding | lowered CTNNB1 protein levels in cells in a proteasome-dependent manner | –
